# Assay results from patent US12673925B2, “Compounds and compositions for eye treatments” (Avedro, Inc., priority 2018, dated 2026).
# System: cornea of porcine whole globes
# Experiment: Porcine eye corneal flattening assay
# Details: de-epithelialized porcine cornea; 0.11% w/v in saline; UVA 4 mm circle, 365 nm, 30 mW/cm^2, pulsed, 16.2 min, 15 J, 90%+ oxygen, 37.0° C.
# Method: Protocol 1 (For Examples 8, 9, 10, 17, 18, 19, 20, 28, and 29): Porcine whole globes in saline at 4° C. were warmed to room temperature. […] The eye holders were then positioned inside an enclosed chamber that allows for the control of atmosphere, temperature and humidity (typically a water bath at 37.0° C.). IOP is maintained at a constant pressure by the insertion of a blood bank buffered saline line from an IV bag at a standard height inserted into each eye via a syringe needle. 5% Dextran T500 in blood bank buffered saline is dropped onto the surface of the cornea of each eye every 90 sec for 2 hours to allow the eyes to stabilize. […] The test eye is then orientated in a vertical position and the pre-treatment surface keratometry of the cornea measured using a Pentacam® HR device fine cornea 100 scan. […] After a further 1.5 hours during which the 5% dextran drops are resumed the eye is orientated back to the vertical position and the post-treatment surface keratometry of the cornea measured using a Pentacam® HR device fine cornea 100 scan as before. The difference map between the pre and post treatment corneal images is obtained and the overall change in keratometry (Km) of the central 3 mm zone recorded as a change in diopters. […]
compound,measurement,value
Cc1cc2nc(-c3nnnn3C)c(=O)n(C[C@H](O)[C@H](O)[C@H](O)CO)c2cc1C [Compound 40],Refractive Change (D),−2.5 D
